Test results published in patent US6432681B1, “Compositions for treating Escherichia coli urinary tract infections” (The Regents of the University of Washington, priority 1992, dated 2002).

Key:
Escherichia coli R45 = assay: Bacterial overlay assay: binding of 35S-labelled E. coli R45 to glycolipids separated on HPTLC; details: for binding of E. coli R45 to glycolipid standards: GSL standards separated on HPTLC plates; for reaction of E. coli R45 with SGG and DSGG standards (FIG. 1A): standards run beside vaginal epithelial cell gangliosides, autoradiogram
Experimental: E. coli R45 was isolated from a person with cystitis which had the pap family genotype, expressing both the P and F adhesins (Stapleton, A. et al., J. Infect Dis., 163:773-779, 1989). Organisms were kept frozen in 50% glycerol/50% Luria broth (Maniatis, T. et al., Molecular Cloning: A Laboratory Manual, 1982) at −70° C. until the night before use, when they were streaked onto Luria agar plates (Maniatis, T. et al., Molecular Cloning: A Laboratory Manual, 1982) to promote fimbrial expression and grown overnight at 37° C. On the day of use, bacteria were scraped from the plate, resuspended in M9 medium (Maniatis, T. et al., Molecular Cloning: A Laboratory Manual, 1982) without amino acids, and shaken at 37° C. for 40 minutes to deplete cellular methionine stores. ^35S-methionine (Trans^35S-label, 1137 Ci/mmol, ICN Biochemicals, Irvine, California) was then added at 200 μCi per 10^10 organisms. The cells were shaken for one hour, washed three times in PBS and resuspended in PBS (pH 7.3), and counted in a scintillation counter to give a final activity of approximately 0.01 to 0.02 cpm/organism.
(§1) Glycolipids (10 to 40 μg/lane) were chromatographed on glass HPTLC plates (Whatman) in CMW (50:40:10 by volume) with 0.05% CaCl2 with one plate run in parallel for orcinol staining. Plates were dried, dipped for 1 minute in diethyl ether containing 0.5% polyisobutylmethacrylate, dried, and preincubated in 1% bovine serum albumin (BSA)/PBS for one hour, then washed three times in PBS. Radiolabelled bacteria were overlaid (10^8 cpm total per plate) and the plates were gently rocked for one hour, washed four times in PBS and subjected to autoradiography.
The binding of metabolically radiolabelled E. coli strain R45 to glycolipid standards separated on HPTLC plates was determined using a broad panel of GSLs with varying carbohydrate moieties, as shown in Table 2.
Subsequent experiments were conducted to identify the unique E. coli-binding GSL band detected in nonsecretors' vaginal epithelial cells. Total upper neutral GSLs and total upper gangliosides were extracted from vaginal epithelial cells pooled in equal quantities from 5 nonsecretors and 9 secretors and reacted with radiolabelled E. coli R45.
Lane 1 contains ceramide trihexoasyl and globoside standards; Lane 2 contains total lower phase GSLs from the nonsecretors; Lane 3 contains total lower phase GSLs from the secretors; Lane 4 contains the Forssman antigen standard; Lanes 5 and 6 contain total upper neutral GSLs from nonsecretors and secretors, respectively; Lanes 7 and 10 contain gal-globoside, sialosyl gal-globoside, and disialosyl gal-globoside standards; Lanes 8 and 9 contain total upper phase gangliosides from nonsecretors and secretors, respectively.

[1] = test system: E. coli isolates R45, IA2, JJ122, pDC1 and pJFK102; assay: Bacterial overlay assay: binding of five 35S-labelled E. coli UTI isolates to serially diluted globo-series GSLs, radioactivity counted; set-up: species or system Escherichia coli; details: all five isolates; GSL serially diluted from 300 ng to 18.25 ng on HPTLC
Experimental: as §1
Five isolates of E. coli were isolated from patients with UTI, R45 (wild-type cystitis isolate expressing class II pap adhesin), IA2 (wild-type isolate expressing class II pap adhesin), JJ122 (expresses class I pap adhesin), pDC1 (a subclone of IA2, expresses class II pap adhesin) and pJFK102 (expresses class III pap adhesin). The five strains were labelled metabolically with ^35S and exposed to various glycosphingolipids (GSL) separated by HPTLC in the bacterial overlay assay described hereinabove. The amount of radioactivity in the area of each GSL was counted. Controls included HB101.
The GSL's tested were CTH (globotriaosylceramide, isolated from human red blood cells), globoside (also isolated from human erythrocytes), SGG (isolated from vaginal epithelial cells or human kidney), CMH (ceramide monohexoside isolated from adenocarcinoma of colon, negative control) and DSGG (isolated from the same sources as SGG). The GSL's were serially diluted beginning with 300 ng and ending at 18.25 ng.

[2] = test system: MAb ID4 (directed against SGG); assay: Radioimmunoassay of GSLs immobilized in microtiter wells with MAb ID4; format: binding; details: standards from human pancreas, bovine brain (GD1a), human placenta (disialosyl I)
Experimental: Radioimmunoassays of GSLs immobilized in microtiter wells were performed according to the method of Karlsson (Karlsson, K.-A. et al., Methods Enzymol., 138:220-232, 1987).
The SGG and DSGG bands from the nonsecretors' vaginal epithelial cell extracts were then reacted with ID4 in a radioimmunoassay, shown in FIG. 3.
In FIG. 3, the dotted line indicates sialosyl gal-globoside (SGG) standard from human pancreas; the solid line indicates the band co-migrating with SGG eluted from TLC of nonsecretors' extracted vaginal epithelial cells; the dashed line indicates eluted band co-migrating with DSGG from nonsecretors and the following GSL standards: gal-globoside and DSGG from human pancreas, GD1a from bovine brain, and disialosyl I from human placenta.

Substance	binding of E. coli R45 to glycolipid standards (Escherichia coli R45)	level of binding of the E. coli isolates to the GSL [1]	reaction of antibody ID4 with GSL standards (FIG. 3) [2]	reaction of E. coli R45 with SGG and DSGG standards (FIG. 1A) (Escherichia coli R45)
GalNAcα1-3 (Fucα1-2)Galβ1-3 GalNacβ1-3 Galα1-4 Galβ1-4 Glcβ1-1cer [Globo A]	bound	–	–	–
GalNAcβ1-3 Galα1-4 Galβ1-4 Glcβ1-1cer [Globoside]	bound	lower than to DSGG	–	–
GD1a	–	–	did not bind	–
NeuAcα2-3 (NeuAcα2-6)Galβ1-3 GalNAcβ1-3 Galα1-4 Galβ1-4 Glcβ1-1cer [DSGG]	–	–	did not bind	reacted
Galα1-4 Galβ1-4 Glcβ1-1cer [CTH]	–	lower than to DSGG	–	–
Galβ1-3 GalNAcβ1-3 Galα1-4 Galβ1-4 Glcβ1-1cer [Gal-globoside]	bound	–	did not bind	–
NeuAcα2-3 Galβ1-3 GalNAcβ1-3 Galα1-4 Galβ1-4 Glcβ1-1ce [SGG]	–	highest binding	reacted	reacted
(Fucα1-2)Galβ1-3 GalNAcβ1-3 Galα1-4 Galβ1-4 Glcβ1-1cer [Globo H]	bound	–	–	–
GalNAcα1-3 Galβ1-3 GalNAcβ1-3 Galα1-4 Galβ1-4 Glcβ1-1cer [Forssman]	bound	–	–	–
